From patent publication US20230398130A1, “METHODS AND COMPOSITIONS FOR DIFFERENTIATING STEM CELLS” (Massachusetts Institute of Technology, priority 2020, published 2023)
“Also recorded” adds a separate entry of the source.

Experiments:
ISC-enriched organoids [1] = assay: Primary screen, 384-well 2.5-D organoid differentiation (ENR+CD, 6 days, Target Selective Inhibitor Library, vs whole-plate median): ATP (CellTiter-Glo 3D, CTG); conditions: primary screen; for Dose.FC.CTG (log 2 fold change): vs plate median
ISC-enriched organoids [2] = assay: Primary screen, 384-well 2.5-D organoid differentiation (ENR+CD, 6 days): basal lysozyme secretion (LYZ.NS); assay type: cell-based, murine; conditions: primary screen; for Dose.FC.LYZ.NS (log 2 fold change): vs plate median
Excerpt: (§1) High-throughput screening.

ISC-enriched organoids [3] = assay: Secondary (validation) screen, 384-well 2.5-D, ENR+CD 6 days, n=8 wells, vs ENR+CD+DMSO control: basal lysozyme secretion (LYZ.NS); assay type: cell-based, murine; design: key to Dose.FC.LYZ.NS: log10 fold change vs median of vehicle control wells
Protocol: (§2) Drugs were tested at a narrowed dose range around each treatment's identified optimal dose from the primary screen (4× below, 2× above and below).
as §1
(§3) Secondary lysozyme secretion assay screen. Confirmatory secondary screening with primary hits was performed using the above 384-well plate method. The screen was conducted with 4-plate replicates with a base media of ENR+CD. Media was supplemented with compound at day 0 and day 3 (n=8 well replicates per dose) at four different doses: two-fold above, two-fold below, and four-fold below the optimal final dose for each respective treatment. Additionally, each plate carried a large number of ENR+DMSO or ENR+CD+DMSO (vehicle) control wells (n=100 for ATP, and n=25 for LYZ.NS and LYZ.S) for robust normalization. ATP, non-stimulated lysozyme activity and CCh-stimulated lysozyme activity was again measured and the collected data was again processed in a custom R-script, per primary screen with slight modification. Values were log10 transformed, and a plate-wise FC was calculated for each well based on the median value of ENR+CD+DMSO (vehicle) control wells to normalize plate to plate variability.

ISC-enriched organoids [4] = assay: Secondary (validation) screen, 384-well 2.5-D, ENR+CD 6 days, n=8 wells, vs ENR+CD+DMSO control: ATP (CTG); assay type: cell-based, murine; design: key to Dose.FC.CTG: log10 fold change vs median of vehicle control wells
Protocol: as §2, §1, §3

ISC-enriched organoids [5] = assay: Primary screen, 384-well 2.5-D organoid differentiation (ENR+CD, 6 days): carbachol-induced lysozyme secretion (LYZ.S); assay type: cell-based, murine; conditions: primary screen, vs plate median
Excerpt: as §1

ISC-enriched organoids [6] = assay: Secondary (validation) screen, 384-well 2.5-D, ENR+CD 6 days, n=8 wells, vs ENR+CD+DMSO control: carbachol-induced lysozyme secretion (LYZ.S); assay type: cell-based, murine
Protocol: as §2, §1, §3

ISC-enriched organoids [7] = assay: Lysozyme secretion assay, 3-D organoids in ENR+CD, normalized to ATP; assay type: cell-based, murine
Protocol: Lysozyme assay (3D culture). ISC-enriched organoids cultured in 3D Matrigel with ENRCV media were passaged to 48-well plate in 3D Matrigel with ENRCV. At day zero, media were replaced to ENR or ENRCD with or without indicated compounds, and media were replaced every other day. At day six, cells were washed twice with basal media and treated with carbamylcholine chloride (Sigma, C4382) for 3 hours. Media were collected and lysozyme activity was measured by EnzChek Lysozyme Assay Kit (ThermoFisher, E22013).
(§4) Lysozyme secretion assay. ISC-enriched organoids in 3D Matrigel culture were passaged to a 48- or 96-well plate and cultured with ENR or ENR+CD media containing DMSO or each drug for 6 days. DMSO- or drug-containing media were changed every other day. On day 6, cells were washed with basal media twice and treated with basal media with or without 10 μM carbamoylcholine chloride for 3 h in a CO2 incubator at 37° C. A part of the conditioned media was collected and used for lysozyme assay (Thermo, E-22013) following the manufacturer's instruction. The fluorescence was measured using excitation/emission of 485/530 nm. CellTiter-Glo 3D Reagent (Promega, G9681) was added afterward, and the cell culture plate was incubated on an orbital shaker at RT for 30 min to induce cell lysis and to stabilize the luminescent signal. The solution was replaced to a 96-well white microplate, and luminescent signals were measured by a microplate reader (infinite M200, Tecan). The standard curve was prepared by diluting recombinant ATP (Promega, P1132). For both assays, a polynomial cubic curve was fitted to a set of standard data, and each sample value was calculated on the Microsoft Excel.
as §4, with “in 3-D” for “in 3D”, “μM carbachol” for “μM carbamoylcholine chloride”, “3 hours” for “3 h”, “C. Conditioned” for “C. A part of the conditioned”, “nm. CTG” for “nm. CellTiter-Glo”, “Reagent” for “Reagent (Promega, G9681)”

With `NC(=O)c1ccc(-c2nc(-c3ccccn3)c(-c3ccc4c(c3)OCO4)[nH]2)cc1` [SB431542] the “Z.CTG (standard z score)” value (ISC-enriched organoids [1]; Dose 0.08 uM) was 0.907, the “Dose.FC.CTG (log 2 fold change)” value (ISC-enriched organoids [1]; Dose 0.08 uM) was 0.380 and the “Z.CTG (standard z score)” value (ISC-enriched organoids [1]; Dose 0.40 uM) was 1.130. For the same molecule, the “Dose.FC.CTG (log 2 fold change)” value (ISC-enriched organoids [1]; Dose 0.40 uM) was 0.473, the “Z.CTG (standard z score)” value (ISC-enriched organoids [1]; Dose 2.00 uM) was 0.754 and the “Dose.FC.CTG (log 2 fold change)” value (ISC-enriched organoids [1]; Dose 2.00 uM) was 0.316. For the same molecule, the “Z.CTG (standard z score)” value (ISC-enriched organoids [1]; Dose 10.00 uM) was 0.370, the “Dose.FC.CTG (log 2 fold change)” value (ISC-enriched organoids [1]; Dose 10.00 uM) was 0.155 and the “Z.LYZ.NS (standard z score)” value (ISC-enriched organoids [2]; Dose 0.08 uM) was 1.225. For the same molecule, the “Dose.FC.LYZ.NS (log 2 fold change)” value (ISC-enriched organoids [2]; Dose 0.08 uM) was 0.141, the “Z.LYZ.NS (standard z score)” value (ISC-enriched organoids [2]; Dose 0.40 uM) was 1.514 and the “Dose.FC.LYZ.NS (log 2 fold change)” value (ISC-enriched organoids [2]; Dose 0.40 uM) was 0.174. The “Z.LYZ.NS (standard z score)” value (ISC-enriched organoids [2]; Dose 2.00 uM) was 1.632, the “Dose.FC.LYZ.NS (log 2 fold change)” value (ISC-enriched organoids [2]; Dose 2.00 uM) was 0.187 and the “Z.LYZ.NS (standard z score)” value (ISC-enriched organoids [2]; Dose 10.00 uM) was 0.346. For the same molecule, the “Dose.FC.LYZ.NS (log 2 fold change)” value (ISC-enriched organoids [2]; Dose 10.00 uM) was 0.040, the Dose.FC.LYZ.NS (ISC-enriched organoids [3]; Dose 0.06 uM) was 0.089 and the Z.LYZ.NS (ISC-enriched organoids [3]; Dose 0.06 uM) was 0.709. The repSSMD.LYZ.NS (ISC-enriched organoids [3]; Dose 0.06 uM) was 1.073, the Dose.FC.LYZ.NS (ISC-enriched organoids [3]; Dose 0.24 uM) was 0.105 and the Z.LYZ.NS (ISC-enriched organoids [3]; Dose 0.24 uM) was 0.838. The repSSMD.LYZ.NS (ISC-enriched organoids [3]; Dose 0.24 uM) was 0.830, the Dose.FC.LYZ.NS (ISC-enriched organoids [3]; Dose 0.48 uM) was −0.016 and the Z.LYZ.NS (ISC-enriched organoids [3]; Dose 0.48 uM) was −0.128. It also gave a repSSMD.LYZ.NS (ISC-enriched organoids [3]; Dose 0.48 uM) of −0.149, a Dose.FC.LYZ.NS (ISC-enriched organoids [3]; Dose […]) of 0.116 and a Dose.FC.CTG (ISC-enriched organoids [4]; Dose 0.06 uM) of 0.160. It also gave a Z.CTG (ISC-enriched organoids [4]; Dose 0.06 uM) of 1.439, a repSSMD.CTG (ISC-enriched organoids [4]; Dose 0.06 uM) of 0.654 and a Dose.FC.CTG (ISC-enriched organoids [4]; Dose 0.24 uM) of 0.023. The Z.CTG (ISC-enriched organoids [4]; Dose 0.24 uM) was 0.206, the repSSMD.CTG (ISC-enriched organoids [4]; Dose 0.24 uM) was 0.141 and the Dose.FC.CTG (ISC-enriched organoids [4]; Dose 0.48 uM) was 0.083. It also gave a Z.CTG (ISC-enriched organoids [4]; Dose 0.48 uM) of 0.752, a repSSMD.CTG (ISC-enriched organoids [4]; Dose 0.48 uM) of 0.527 and a Dose.FC.CTG (ISC-enriched organoids [4]; Dose […]) of 0.120. The “Dose.FC.LYZ.S (log 2 fold change)” value (ISC-enriched organoids [5]; Dose 0.08 uM) was 0.135, the “Dose.FC.LYZ.S (log 2 fold change)” value (ISC-enriched organoids [5]; Dose 0.40 uM) was 0.309 and the “Dose.FC.LYZ.S (log 2 fold change)” value (ISC-enriched organoids [5]; Dose 2.00 uM) was 0.223. For the same molecule, the “Dose.FC.LYZ.S (log 2 fold change)” value (ISC-enriched organoids [5]; Dose 10.00 uM) was 0.126, the Z.LYZ.S (ISC-enriched organoids [6]; Dose 0.06 uM) was 0.514 and the “log10 fold change in stimulated lysozyme secretion vs vehicle control” value (“log10 fold change” for short) (ISC-enriched organoids [6]; Dose 0.06 uM) was 0.067. For the same molecule, the repSSMD.LYZ.S (ISC-enriched organoids [6]; Dose 0.06 uM) was 0.855, the Z.LYZ.S (ISC-enriched organoids [6]; Dose 0.24 uM) was 0.211 and the “log10 fold change” value (ISC-enriched organoids [6]; Dose 0.24 uM) was 0.027. The repSSMD.LYZ.S (ISC-enriched organoids [6]; Dose 0.24 uM) was 0.301, the Z.LYZ.S (ISC-enriched organoids [6]; Dose 0.48 uM) was −0.387 and the “log10 fold change” value (ISC-enriched organoids [6]; Dose 0.48 uM) was −0.050. The repSSMD.LYZ.S (ISC-enriched organoids [6]; Dose 0.48 uM) was −0.449 and the “log10 fold change” value (ISC-enriched organoids [6]; Dose […]) was 0.072.

In the case of `CC1=C(/C=C/C(=C/C=C/C(C)=C/C(=O)O)c2ccc(C)cc2)C(C)(C)CCC1` [SR11302], the “Paneth cell differentiation (functional LYZ secretion), in combination with KPT-330” value (ISC-enriched organoids [7]; 6-day ENR+CD differentiation with 160 nM KPT-330) is reported as “significantly decreases functional LYZ secretion” and the “Paneth cell differentiation (functional LYZ secretion), compound alone” value (ISC-enriched organoids [7]; 6-day ENR+CD differentiation, 10 μM SR11302, 20 nM Cobimetinib, others over a dose range) is reported as “also decreases functional LYZ secretion; also recorded: significantly decreases functional LYZ secretion”.
